Literature values, collected in patent US6214381A, “Methazolamide composition and method of use” (Effcon, Inc., priority 1998, dated 2001).

Settings: background statement

Q: For `CC(=O)N=c1sc(S(N)(=O)=O)nn1C` [Methazolamide, methazolamide], which water solubility is on record?
A: water-insoluble
